Tests used:
Assay type in all cases: cell-based
[1] = target: T1, NAD(P)H:quinone oxidoreductase-1 (NQO1) (Homo sapiens, UniProt P15559); assay: NQO1 activity; details: KKU100, read-out: % inhibition at 4.55 μM
[2] = target: T1, NAD(P)H:quinone oxidoreductase-1 (NQO1); assay: single-concentration NQO1 activity screen; details: read-out: % inhibition at 4.55 μM
[3] = target: T1, NAD(P)H:quinone oxidoreductase-1 (NQO1); assay: NQO1 activity; details: KKU100, read-out: % inhibition at 4.55 μM; remark: listed apart in the source

T1 sequence (P15559 whole entry): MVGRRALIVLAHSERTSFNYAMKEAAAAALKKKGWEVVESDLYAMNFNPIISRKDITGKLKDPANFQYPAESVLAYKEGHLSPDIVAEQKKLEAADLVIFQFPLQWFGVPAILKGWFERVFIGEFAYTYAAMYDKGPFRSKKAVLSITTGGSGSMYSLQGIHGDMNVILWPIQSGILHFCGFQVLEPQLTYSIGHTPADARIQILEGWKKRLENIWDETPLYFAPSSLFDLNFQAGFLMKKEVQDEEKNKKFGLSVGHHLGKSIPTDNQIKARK

| Structure (SMILES) | inhibition at 4.55 µM [1] [%] | inhibition at 4.55 µM [3] [%] | other results |
| --- | --- | --- | --- |
| O=c1ccc2cc(O)c(O)cc2o1 [aesculetin] | 34.9 |  |  |
| O=c1ccc2ccccc2o1 [coumarin] | 41.8 |  |  |
| O=c1cc(-c2ccc(O)c(O)c2)oc2cc(O)cc(O)c12 [luteolin] |  |  | inhibition at 4.55 µM [2]: 55% |
| COc1cc2ccc(=O)oc2cc1O [scopoletin] |  | 77.4 |  |
| O=c1ccc2ccc(O)cc2o1 [umbelliferone] |  | 63.5 |  |
